12 molecules from patent US8324264B1, “Inhibitors of bacterial biofilms and related methods” (Sequoia Sciences, Inc., priority 2011, dated 2012) can be followed below.

The test system of data set [1] is P. aeruginosa biofilms. Nature of the data set: Biofilm growth assay (spreading biofilm on semi-solid agar), P. aeruginosa. It is filed as cell-based. The following applies: Pseudomonas aeruginosa, read-out: P. aeruginosa: concentration that reduces the area of the spreading biofilm by greater than or equal to 85%. In short, it runs like this: (§1)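 Values are compound concentrations (μg/ml) that cut the spreading-biofilm zone area by ≥85% relative to negative controls after overnight 37 °C growth from 5 μL central inoculum. E. coli plates: LB, 0.6% agar, 0.5% glucose; P. aeruginosa plates: M8 agar plus 0.2% glucose, 100 μM CaCl2, 1 mM MgSO4, 0.5% Casamino acids.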

In data set [2] the test system is E. coli biofilms. Nature of the data set: Biofilm growth assay (spreading biofilm on semi-solid agar), E. coli. It is filed as cell-based. The following applies: Escherichia coli, read-out: E. coli: concentration that reduces the area of the spreading biofilm by greater than or equal to 85%. In short, it runs like this: as §1
The mark [3] stands for this setting: biofilm growth assay, overnight 37° C., vs negative controls, Tables 1-5.

≈ marks a conversion by molar mass, not a printed value. Counter-ions that a name gives are not always drawn. Like-named read-outs stand apart in the source and are kept apart here. A value given as a limit tells only on which side of the number the result lay.

Broadly, the melting point is the temperature of the solid-liquid transition. For `CC1(C)CC[C@]2(C(=O)O)CC[C@]3(C)C(=C(c4cccc(O)c4)CC4[C@@]5(C)Cc6c(n[nH]c6N)C(C)(C)C5CC[C@]43C)C2C1` (stereo partly drawn) (as salt: ammonium) [Example 16, (4aS,6aS,6bR,13aR)-12-Amino-15-(3-hydroxyphenyl)-2,2,6a,6b,9,9,13a-heptamethyl-2,3,4,4a,5,6,6a,6b,7,8,8a,9,11,13,13a,13b,14,15b-octadecahydro-1H-chryseno[1,2-f]indazole-4-a-carboxylic acid], the melting point is 260 to 280 °C (dec.).
As to `CC1(C)CC[C@]2(C(=O)O)CC[C@]3(C)C(=C(c4ccccc4N)CC4[C@@]5(C)Cc6c(n[nH]c6N)C(C)(C)C5CC[C@]43C)C2C1` (stereo partly drawn) (as salt: ammonium) [Example 23, (4aS,6aS,6bR,13aR)-12-Amino-15-(2-aminophenyl)-2,2,6a,6b,9,9,13a-heptamethyl-2,3,4,4a,5,6,6a,6b,7,8,8a,9,11,13,13a,13b,14,15b-octadecahydro-1H-chryseno[1,2-f]indazole-4-a-carboxylic acid], the melting point is 210 to 230 °C (dec.).
Turning to `CC1(C)CC[C@]2(C(=O)Nc3nnn[nH]3)CC[C@]3(C)C(=CCC4[C@@]5(C)Cc6c(n[nH]c6N)C(C)(C)C5CC[C@]43C)C2C1` (stereo partly drawn) [Compound 61, (4aS,6aS,6bR,13aR)-12-Amino-2,2,6a,6b,9,9,13a-heptamethyl-N-(1H-tetrazol-5-yl)-2,3,4,4a,5,6,6a,6b,7,8,8a,9,11,13,13a,13b,14,15b-octadecahydro-1H-chryseno[1,2-f]indazole-4-a-carboxamide], the melting point was over 300 °C. The IC85 in data set [1] turned out to be 0.5 µg/mL (≈ 0.892 µM). Besides, the IC85 in data set [2] worked out at 0.5 µg/mL (≈ 0.892 µM).
In turn, `CC1(C)CC[C@]2(C(=O)Nc3cc(N)n[nH]3)CC[C@]3(C)C(=CCC4[C@@]5(C)Cc6c(n[nH]c6N)C(C)(C)C5CC[C@]43C)C2C1` (stereo partly drawn) [Compound 69, (4aS,6aS,6bR,13aR)-12-amino-N-(3-amino-1H-pyrazol-5-yl)-2,2,6a,6b,9,9,13a-heptamethyl-2,3,4,4a,5,6,6a,6b,7,8,8a,9,11,13,13a,13b,14,15b-octadecahydro-1H-chryseno[1,2-f]indazole-4-a-carboxamide] came in with a melting point of over 300 °C. Besides, the IC85 in data set [1] (setting [3]) is 1 µg/mL (≈ 1.74 µM). Moreover, the IC85 in data set [2] (setting [3]) was 1 µg/mL (≈ 1.74 µM).
Take `Cn1nc([C@]23CCC(C)(C)CC2C2=CCC4[C@@]5(C)Cc6c(n[nH]c6N)C(C)(C)C5CC[C@@]4(C)[C@]2(C)CC3)cc1N` (stereo partly drawn) [Compound 72, (4aS,6aS,6bR,8aR,13aR,15bS)-4-a-(5-Amino-1-methyl-1H-pyrazol-3-yl)-2,2,6a,6b,9,9,13a-heptamethyl-2,3,4,4a,5,6,6a,6b,7,8,8a,9,11,13,13a,13b,14,15b-octadecahydro-1H-chryseno[1,2-f]indazol-12-amine]: the melting point is 195 to 210 °C (dec.). In data set [1] (setting [3]), the IC85 was 1 µg/mL (≈ 1.84 µM). Moreover, in data set [2] (setting [3]), the IC85 was over 2 µg/mL.
As for `CC1(C)CC[C@]2(C(=O)Nc3cc(S)n[nH]3)CC[C@]3(C)C(=CCC4[C@@]5(C)Cc6c(n[nH]c6N)C(C)(C)C5CC[C@]43C)C2C1` (stereo partly drawn) [Compound 79, (4aS,6aS,6bR,13aR)-12-Amino-N-(3-mercapto-1H-pyrazol-5-yl)-2,2,6a,6b,9,9,13a-heptamethyl-2,3,4,4a,5,6,6a,6b,7,8,8a,9,11,13,13a,13b,14,15b-octadecahydro-1H-chryseno[1,2-f]indazole-4-a-carboxamide], the melting point is over 300 °C. Besides, the IC85 in data set [1] (setting [3]) amounted to 0.25 µg/mL (≈ 0.423 µM). In addition, the IC85 in data set [2] (setting [3]) is 0.5 µg/mL (≈ 0.846 µM).
`CC1(C)CC[C@]2(c3n[nH]c(O)c3CCNC(N)=O)CC[C@]3(C)C(=CCC4[C@@]5(C)Cc6c(n[nH]c6N)C(C)(C)C5CC[C@]43C)C2C1` (stereo partly drawn) [Compound 87, 1-(2-(3-((4aS,6aS,6bR,13aR)-12-Amino-2,2,6a,6b,9,9,13a-heptamethyl-2,3,4,4a,5,6,6a,6b,7,8,8a,9,11,13,13a,13b,14,15b-octadecahydro-1H-chryseno[1,2-f]indazol-4-a-yl)-5-hydroxy-1H-pyrazol-4-yl)ethyl)urea] had a melting point of over 300 °C. In data set [1] (setting [3]), the IC85 came out at 0.5 µg/mL (≈ 0.809 µM). Also, the IC85 in data set [2] (setting [3]) amounted to 1 µg/mL (≈ 1.62 µM).
`CC1(C)CC[C@]2(c3n[nH]c(O)c3N3CCNCC3)CC[C@]3(C)C(=CCC4[C@@]5(C)Cc6c(n[nH]c6N)C(C)(C)C5CC[C@]43C)C2C1` (stereo partly drawn) [Compound 90, 3-((4aS,6aS,6bR,13aR)-12-Amino-2,2,6a,6b,9,9,13a-heptamethyl-2,3,4,4a,5,6,6a,6b,7,8,8a,9,11,13,13a,13b,14,15b-octadecahydro-1H-chryseno[1,2-f]indazol-4-a-yl)-4-(piperazin-1-yl)-1H-pyrazol-5-ol]: the melting point is over 300 °C. In addition, the IC85 in data set [1] (setting [3]) was found to be 0.5 µg/mL (≈ 0.812 µM). In data set [2] (setting [3]), the IC85 amounted to 1 µg/mL (≈ 1.62 µM).
`CC1(C)CC[C@]2(C(=O)Sc3nnc(N)[nH]3)CC[C@]3(C)C(=C(c4cccnc4)CC4[C@@]5(C)Cc6c(n[nH]c6N)C(C)(C)[C@@H]5CC[C@]43C)[C@@H]2C1` (stereo partly drawn) [Compound 91, (4aS,6aS,6bR,8aR,13aR,15bS)—S-5-Amino-4H-1,2,4-triazol-3-yl 12-amino-2,2,6a,6b,9,9,13a-heptamethyl-15-(pyridin-3-yl)-2,3,4,4a,5,6,6a,6b,7,8,8a,9,11,13,13a,13b,14,15b-octadecahydro-1H-chryseno[1,2-f]indazole-4-a-carbothioate] yielded a melting point of over 300 °C. In addition, the IC85 in data set [1] (setting [3]) was 1 µg/mL (≈ 1.49 µM). The IC85 in data set [2] (setting [3]) was determined as 1 µg/mL (≈ 1.49 µM).
With `CC1(C)CC[C@]2(c3n[nH]c(O)c3CCN)CC[C@]3(C)C(=C(c4ccoc4CN4CCOCC4)CC4[C@@]5(C)Cc6c(n[nH]c6N)C(C)(C)[C@@H]5CC[C@]43C)[C@@H]2C1` (stereo partly drawn) [Compound 92, 3-((4aS,6aS,6bR,8aR,13aR,15bS)-12-Amino-2,2,6a,6b,9,9,13a-heptamethyl-15-(2-(morpholinomethyl)furan-3-yl)-2,3,4,4a,5,6,6a,6b,7,8,8a,9,11,13,13a,13b,14,15b-octadecahydro-1H-chryseno[1,2-f]indazol-4-a-yl)-4-(2-aminoethyl)-1H-pyrazol-5-ol], the melting point fell in the range of 238 to 240 °C. For the same molecule, the IC85 in data set [1] (setting [3]) is 0.5 µg/mL (≈ 0.676 µM). The IC85 in data set [2] (setting [3]) came to 2 µg/mL (≈ 2.7 µM).
On the same counts, the results for `C/C=C/C1=C2[C@@H]3CC(C)(C)CC[C@]3(C(=O)O)CC[C@@]2(C)[C@]2(C)CC[C@H]3C(C)(C)c4n[nH]c(N)c4C[C@]3(C)C2C1` (stereo partly drawn) [Example 5, (4aS,6aS,6bR,8aR,13aR,15bS)-12-Amino-2,2,6a,6b,9,9,13a-heptamethyl-15-((E)-prop-1-enyl)-2,3,4,4a,5,6,6a,6b,7,8,8a,9,11,13,13a,13b,14,15b-octadecahydro-1H-chryseno[1,2-f]indazole-4-a-carboxylic acid] are over 300 °C, 0.5 µg/mL (≈ 0.937 µM) and 1 µg/mL (≈ 1.87 µM).
On to `CC1(C)CC[C@]2(C(=O)O)CC[C@]3(C)C(=C(c4cc[nH]c4)CC4[C@@]5(C)Cc6c(n[nH]c6N)C(C)(C)[C@@H]5CC[C@]43C)[C@@H]2C1` (stereo partly drawn) [Example 6, (4aS,6aS,6bR,8aR,13aR,15bS)-12-Amino-2,2,6a,6b,9,9,13a-heptamethyl-15-(1H-pyrrol-3-yl)-2,3,4,4a,5,6,6a,6b,7,8,8a,9,11,13,13a,13b,14,15b-octadecahydro-1H-chryseno[1,2-f]indazole-4-a-carboxylic acid], for which the melting point is over 300 °C. The IC85 in data set [1] (setting [3]) is 0.125 µg/mL (≈ 0.224 µM). Besides, the IC85 in data set [2] (setting [3]) stood at 0.25 µg/mL (≈ 0.447 µM).
